Source: ChEMBL document CHEMBL4028859, “Inhibition of Calcium Dependent Protein Kinase 1 (CDPK1) by Pyrazolopyrimidine Analogs Decreases Establishment and Reoccurrence of Central Nervous System Disease by Toxoplasma gondii” (J Med Chem, 2017)

Assays:
[1] = (§1) Cmax in Swiss albino mouse at 10 mg/kg, po administered as single dose by LC-MS/MS analysis; format: ADME, organism-based; set-up: dose 10 mg/kg, route oral; settings: Swiss albino, in vivo
[2] = (§2) AUClast in Swiss albino mouse at 10 mg/kg, po administered as single dose by LC-MS/MS analysis; format: ADME, organism-based; set-up: dose 10 mg/kg, route oral, time 0 - last; settings: Swiss albino, in vivo
[3] = (§3) Tmax in Swiss albino mouse at 10 mg/kg, po administered as single dose by LC-MS/MS analysis; format: ADME, organism-based; settings: Swiss albino, in vivo
[4] = (§4) Volume of distribution at steady state in Swiss albino mouse at 3 mg/kg, iv administered as single dose by LC-MS/MS analysis; format: ADME, organism-based; settings: Swiss albino, in vivo, read-out: Vdss
[5] = (§5) AUClast in Swiss albino mouse at 3 mg/kg, iv administered as single dose by LC-MS/MS analysis; format: ADME, organism-based; set-up: dose 3 mg/kg, time 0 - last, route intravenous; settings: Swiss albino, in vivo
[6] = (§6) AUC (infinity) in Swiss albino mouse at 10 mg/kg, po administered as single dose by LC-MS/MS analysis; format: ADME, organism-based; set-up: dose 10 mg/kg, time infinity, route oral; settings: Swiss albino, in vivo
Mus musculus [7] = assay: Oral bioavailability in Swiss albino mouse at 10 mg/kg administered as single dose by LC-MS/MS analysis; format: ADME, organism-based; settings: in vivo
[8] = Apparent permeability from apical to basolateral side in human Caco2 cells at 5 uM by LC-MS/MS analysis; format: ADME, cell-based; settings: caco-2, 5 µM
[9] = Initial concentration in Swiss albino mouse at 3 mg/kg, iv administered as single dose by LC-MS/MS analysis; format: ADME, organism-based; settings: in vivo
[10] = Apparent permeability from basolateral to apical side in human Caco2 cells at 5 uM by LC-MS/MS analysis; format: ADME, cell-based; settings: caco-2, 5 µM
[11] = (§7) AUC (infinity) in Swiss albino mouse at 3 mg/kg, iv administered as single dose by LC-MS/MS analysis; format: ADME, organism-based; set-up: dose 3 mg/kg, time infinity, route intravenous; settings: Swiss albino, in vivo
Mus musculus [12] = assay: as §1; format: ADME, organism-based; set-up: dose 10 mg/kg, route oral; settings: in vivo
[13] = Dissociation constant, pKa of compound; format: physicochemical
Mus musculus [14] = assay: as §2; format: ADME, organism-based; set-up: dose 10 mg/kg, route oral, time 0 - last; settings: in vivo
Mus musculus [15] = assay: as §3; format: ADME, organism-based; settings: in vivo
Mus musculus [16] = assay: as §4; format: ADME, organism-based; settings: in vivo
Mus musculus [17] = assay: as §5; format: ADME, organism-based; set-up: dose 3 mg/kg, time 0 - last, route intravenous; settings: in vivo
Mus musculus [18] = assay: as §6; format: ADME, organism-based; set-up: dose 10 mg/kg, time infinity, route oral; settings: in vivo
[19] = Ratio of total drug level in CNS to serum in Swiss albino mouse at 10 to 50 mg/kg, po administered as single dose upto 24 hrs by LC-MS/MS analysis; format: ADME, organism-based
[20] = Ratio of total drug level in brain to plasma in Swiss albino mouse at 10 to 50 mg/kg, po administered as single dose upto 24 hrs by LC-MS/MS analysis; format: ADME, organism-based; settings: read-out: BPR
Mus musculus [21] = assay: as §7; format: ADME, organism-based; set-up: dose 3 mg/kg, time infinity, route intravenous; settings: in vivo

| Papp [8] [×10⁻⁶ cm/s] | C0 [9] [ng/mL] | Papp [10] [×10⁻⁶ cm/s] | Cmax (Mus musculus [12]) [ng/mL] | pKa [13] | AUClast (Mus musculus [14]) [ng·h/mL] | Tmax (Mus musculus [15]) [min] | Vdss (Mus musculus [16]) [L/kg] | AUClast (Mus musculus [17]) [ng·h/mL] | AUC (Mus musculus [18]) [ng·h/mL] | SMILES | further results |
| --- | --- | --- | --- | --- | --- | --- | --- | --- | --- | --- | --- |
| 42.9 | 6890 | 28.7 |  |  |  |  |  |  |  | CC(C)(C)n1nc(Cc2cccc(Cl)c2)c2c(N)ncnc21 | Cmax [1]: 585 ng/mL; AUC(0-t) [2]: 919 ng·h/mL; Tmax [3]: 15 min; Vd [4]: 1.09 L/kg; AUC(0-t) [5]: 1080 ng·h/mL; AUC(0-inf) [6]: 931 ng·h/mL; F (Mus musculus [7]): 26%; AUC(0-inf) [11]: 1080 ng·h/mL |
| 22.8 | 1210 | 21.2 | 1048.8 | 7.1 | 3058.44 | 15 | 3.68 | 975.9 | 3547.95 | Nc1ncnc2c1c(Oc1cccc(Cl)c1)nn2CC1CCNCC1(F)F (configuration not stated) | Kp at 24 h [19]: 5.6; Kp at 24 h [20]: 1.3 |
| 27.1 |  | 25.3 |  | 7.1 |  |  |  |  |  | Nc1ncnc2c1c(Sc1cccc(Cl)c1)nn2CC1CCNCC1(F)F (configuration not stated) |  |
| 2.76 |  | 25.6 |  | 10.4 |  |  |  |  |  | Nc1ncnc2c1c(Sc1cccc(Cl)c1)nn2CC1CCNCC1 |  |
| 1.07 | 536 | 9.58 | 182.56 | 10.4 | 757.85 | 120 | 19.59 | 449.57 | 891.24 | Nc1ncnc2c1c(Oc1cccc(Cl)c1)nn2CC1CCNCC1 |  |
| 15 | 2740 | 14.6 | 76.69 |  | 85.47 | 15 | 2.32 | 619.33 | 91.42 | Cc1cccc(Oc2nn(C(C)(C)C)c3ncnc(N)c23)c1 | AUC (Mus musculus [21]): 625.04 ng·h/mL |

| SMILES | Papp [8] [×10⁻⁶ cm/s] | C0 [9] [ng/mL] | Papp [10] [×10⁻⁶ cm/s] | Cmax (Mus musculus [12]) [ng/mL] | pKa [13] | AUClast (Mus musculus [14]) [ng·h/mL] | Tmax (Mus musculus [15]) [min] | Vdss (Mus musculus [16]) [L/kg] | AUClast (Mus musculus [17]) [ng·h/mL] | AUC (Mus musculus [18]) [ng·h/mL] | further results |
| --- | --- | --- | --- | --- | --- | --- | --- | --- | --- | --- | --- |
| CC(C)(C)n1nc(Oc2cccc(Cl)c2)c2c(N)ncnc21 | 34.8 | 5470 | 30.6 | 1136.36 |  | 1172.75 | 15 | 1.1 |  | 1279.2 |  |
